# ChEMBL document CHEMBL1777688, “TRPV1 modulators: structure-activity relationships using a rational combinatorial approach” (Bioorg Med Chem Lett, 2011)
# Tests used:
# Assay type in all cases: cell-based
# Details in all cases: Oocyte
# [1] = biological target: Glutamate NMDA receptor; GRIN1/GRIN2A (Homo sapiens) (UniProt Q05586+Q12879); assay: Blockade of human recombinant NR1/NR2A expressed in xenopus oocytes assessed as inhibition of L-glutamate/glycine-induced whole-cell current at 10 uM at holding potential of -60 mV by electrophysiological assay relative to control
# [2] = biological target: Transient receptor potential cation channel subfamily V member 1 (Rattus norvegicus) (UniProt O35433); assay: Blockade of rat recombinant TRPV1 expressed in xenopus oocytes assessed as inhibition of capsaicin-induced whole-cell current at 10 uM at holding potential of -60 mV by electrophysiological assay relative to control
# [3] = biological target: Transient receptor potential cation channel subfamily V member 1 (Rattus norvegicus) (UniProt O35433); assay: Blockade of rat recombinant TRPV1 expressed in xenopus oocytes assessed as inhibition of capsaicin-induced whole-cell current at 1 uM at holding potential of -60 mV by electrophysiological assay relative to control
# Sequence of Transient receptor potential cation channel subfamily V member 1 (Rattus norvegicus) (O35433 whole entry): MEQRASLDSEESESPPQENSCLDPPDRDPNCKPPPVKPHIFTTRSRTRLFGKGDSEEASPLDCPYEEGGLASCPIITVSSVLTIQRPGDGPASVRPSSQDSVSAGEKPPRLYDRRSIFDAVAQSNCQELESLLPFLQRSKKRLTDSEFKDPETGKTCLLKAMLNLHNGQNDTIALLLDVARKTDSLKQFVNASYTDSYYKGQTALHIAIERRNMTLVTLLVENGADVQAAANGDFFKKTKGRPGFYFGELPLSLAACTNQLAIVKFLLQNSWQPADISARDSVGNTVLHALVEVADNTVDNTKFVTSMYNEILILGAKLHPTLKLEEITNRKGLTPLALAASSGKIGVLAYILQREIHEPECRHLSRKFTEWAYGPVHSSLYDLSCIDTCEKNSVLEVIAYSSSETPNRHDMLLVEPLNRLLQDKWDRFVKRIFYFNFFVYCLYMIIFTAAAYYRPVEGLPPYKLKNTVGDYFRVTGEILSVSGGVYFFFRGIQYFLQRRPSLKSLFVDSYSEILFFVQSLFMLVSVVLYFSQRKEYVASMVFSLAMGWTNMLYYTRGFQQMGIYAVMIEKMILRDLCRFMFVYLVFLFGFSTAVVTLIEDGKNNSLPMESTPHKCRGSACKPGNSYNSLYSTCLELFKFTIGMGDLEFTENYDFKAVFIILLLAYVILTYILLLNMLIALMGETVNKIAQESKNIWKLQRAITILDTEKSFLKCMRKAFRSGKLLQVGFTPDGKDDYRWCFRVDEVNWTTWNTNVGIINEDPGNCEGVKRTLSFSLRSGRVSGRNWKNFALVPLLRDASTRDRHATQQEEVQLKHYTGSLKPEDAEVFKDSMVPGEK
SMILES,inhibition [1] [%],inhibition [2] [%],inhibition [3] [%]
NC(=O)[C@H](Cc1c(Sc2ncccc2[N+](=O)[O-])[nH]c2ccccc12)N1C(=O)N[C@@H](CCCCN=C(N2CCCC2)N2CCCC2)C1=O,12.9,52.5,–
CC(=O)N[C@@H](CCCCN=C(N(C)C)N(C)C)C(=O)N[C@@H](Cc1c(Sc2ccccc2[N+](=O)[O-])[nH]c2ccccc12)C(N)=O,6.1,19.9,–
NC(=O)[C@H](Cc1c(Sc2ccccc2[N+](=O)[O-])[nH]c2ccccc12)NC(=O)[C@@H](N)CCN=C(N1CCCC1)N1CCCC1,13.9,76.1,23.5
NCCCC[C@@H]1NC(=O)N([C@@H](Cc2c(Sc3ccccc3[N+](=O)[O-])[nH]c3ccccc23)C(N)=O)C1=O,10.5,15.4,–
NCCCC[C@H](N)C(=O)N[C@@H](Cc1c(Sc2ncccc2[N+](=O)[O-])[nH]c2ccccc12)C(N)=O,23.6,17,–
C[N+](C)(C)CCCC[C@H](N)C(=O)N[C@@H](Cc1c(Sc2ccccc2[N+](=O)[O-])[nH]c2ccccc12)C(N)=O,5.5,36.7,–
NC(=O)[C@H](Cc1c(Sc2ccccc2[N+](=O)[O-])[nH]c2ccccc12)N1C(=O)N[C@@H](CCCN=C(N)N)C1=O,20.2,50.2,–
NC(=O)[C@H](Cc1c(Sc2ccccc2[N+](=O)[O-])[nH]c2ccccc12)N1C(=O)N[C@@H](CN=C(N2CCCC2)N2CCCC2)C1=O,43.7,51.3,–
NC(=O)[C@H](Cc1c(Sc2ccccc2[N+](=O)[O-])[nH]c2ccccc12)N1C(=O)N[C@@H](CCCCN=C(N2CCCC2)N2CCCC2)C1=O,10.7,60.4,–
CC(=O)N[C@@H](CCN=C(N1CCCC1)N1CCCC1)C(=O)N[C@@H](Cc1c(Sc2ccccc2[N+](=O)[O-])[nH]c2ccccc12)C(N)=O,9.6,42.4,–
NC(=O)[C@H](Cc1c(Sc2ncccc2[N+](=O)[O-])[nH]c2ccccc12)NC(=O)[C@@H](N)CCCN=C(N)N,20.6,44.8,–
CC(=O)N[C@@H](CCN)C(=O)N[C@@H](Cc1c(Sc2ccccc2[N+](=O)[O-])[nH]c2ccccc12)C(N)=O,27.2,27.6,–
NC(=O)[C@H](Cc1c(Sc2ncccc2[N+](=O)[O-])[nH]c2ccccc12)N1C(=O)N[C@@H](CCCN=C(N)N)C1=O,24.2,54.3,–
C[N+](C)(C)CCCC[C@@H]1NC(=O)N([C@@H](Cc2c(Sc3ccccc3[N+](=O)[O-])[nH]c3ccccc23)C(N)=O)C1=O,9.2,66.5,17.4
CN(C)C(=NCCCC[C@H](N)C(=O)N[C@@H](Cc1c(Sc2ccccc2[N+](=O)[O-])[nH]c2ccccc12)C(N)=O)N(C)C,69.7,49.7,21.1
NC(=O)[C@H](Cc1c(Sc2ccccc2[N+](=O)[O-])[nH]c2ccccc12)NC(=O)[C@H](CCCCN=C(N1CCCC1)N1CCCC1)N=C(N1CCCC1)N1CCCC1,6.8,97.2,27.3
CC(=O)N[C@@H](CCCN=C(N)N)C(=O)N[C@@H](Cc1c(Sc2ncccc2[N+](=O)[O-])[nH]c2ccccc12)C(N)=O,26.3,23.9,–
NC(=O)[C@H](Cc1c(Sc2ccccc2[N+](=O)[O-])[nH]c2ccccc12)NC(=O)[C@@H](N)CCCCN=C(N1CCCC1)N1CCCC1,8.3,55.8,–
NC(=O)[C@H](Cc1c(Sc2ccccc2[N+](=O)[O-])[nH]c2ccccc12)NC(=O)[C@@H](N)CCCN=C(N)N,7.7,62.8,18.7

SMILES,inhibition [1] [%],inhibition [2] [%],inhibition [3] [%]
CN(C)C(=NCCCC[C@@H]1NC(=O)N([C@@H](Cc2c(Sc3ncccc3[N+](=O)[O-])[nH]c3ccccc23)C(N)=O)C1=O)N(C)C,10.8,40.9,–
NC(=O)[C@H](Cc1c(Sc2ccccc2[N+](=O)[O-])[nH]c2ccccc12)N1C(=O)N[C@@H](CCN=C(N2CCCC2)N2CCCC2)C1=O,12,56.3,–
CC(=O)N[C@@H](CN=C(N1CCCC1)N1CCCC1)C(=O)N[C@@H](Cc1c(Sc2ccccc2[N+](=O)[O-])[nH]c2ccccc12)C(N)=O,30.3,49.9,–
CC(=O)N[C@@H](CCCCN=C(N1CCCC1)N1CCCC1)C(=O)N[C@@H](Cc1c(Sc2ccccc2[N+](=O)[O-])[nH]c2ccccc12)C(N)=O,6.4,44,–
CN(C)C(=NCCCC[C@@H]1NC(=O)N([C@@H](Cc2c(Sc3ccccc3[N+](=O)[O-])[nH]c3ccccc23)C(N)=O)C1=O)N(C)C,9.3,13,–
NCCCC[C@H](N)C(=O)N[C@@H](Cc1c(Sc2ccccc2[N+](=O)[O-])[nH]c2ccccc12)C(N)=O,13.5,26.3,–
CC(=O)N[C@@H](CCCC[N+](C)(C)C)C(=O)N[C@@H](Cc1c(Sc2ccccc2[N+](=O)[O-])[nH]c2ccccc12)C(N)=O,32.2,29,–
CC(=O)N[C@@H](CCCCN=C(N1CCCC1)N1CCCC1)C(=O)N[C@@H](Cc1c(Sc2ncccc2[N+](=O)[O-])[nH]c2ccccc12)C(N)=O,30.2,16.6,–
CC(=O)N[C@@H](CCCCN)C(=O)N[C@@H](Cc1c(Sc2ncccc2[N+](=O)[O-])[nH]c2ccccc12)C(N)=O,13.6,12.7,–
NC[C@@H]1NC(=O)N([C@@H](Cc2c(Sc3ccccc3[N+](=O)[O-])[nH]c3ccccc23)C(N)=O)C1=O,18.4,29.9,–
CC(=O)N[C@@H](CCCCN=C(N(C)C)N(C)C)C(=O)N[C@@H](Cc1c(Sc2ncccc2[N+](=O)[O-])[nH]c2ccccc12)C(N)=O,20.6,12,–
NCC[C@H](N)C(=O)N[C@@H](Cc1c(Sc2ccccc2[N+](=O)[O-])[nH]c2ccccc12)C(N)=O,29.7,20.6,–
CC(=O)N[C@@H](CCCN=C(N)N)C(=O)N[C@@H](Cc1c(Sc2ccccc2[N+](=O)[O-])[nH]c2ccccc12)C(N)=O,25.8,29.2,–
C[N+](C)(C)CCCC[C@@H]1NC(=O)N([C@@H](Cc2c(Sc3ncccc3[N+](=O)[O-])[nH]c3ccccc23)C(N)=O)C1=O,20.6,19.9,–
CC(=O)N[C@@H](CN)C(=O)N[C@@H](Cc1c(Sc2ccccc2[N+](=O)[O-])[nH]c2ccccc12)C(N)=O,27,14.6,–
NCCCC[C@@H]1NC(=O)N([C@@H](Cc2c(Sc3ncccc3[N+](=O)[O-])[nH]c3ccccc23)C(N)=O)C1=O,26.8,24.6,–
NCC[C@@H]1NC(=O)N([C@@H](Cc2c(Sc3ccccc3[N+](=O)[O-])[nH]c3ccccc23)C(N)=O)C1=O,16,11,–
NC[C@H](N)C(=O)N[C@@H](Cc1c(Sc2ccccc2[N+](=O)[O-])[nH]c2ccccc12)C(N)=O,24,39.3,–
CC(=O)N[C@@H](CCCCN)C(=O)N[C@@H](Cc1c(Sc2ccccc2[N+](=O)[O-])[nH]c2ccccc12)C(N)=O,15.4,14.3,–
